This is an account of results in US4778796A, “ω-(3-pyridyl)alkenamide derivatives and anti-allergenic pharmaceutical compositions containing same” (Dainippon Pharmaceutical Co., Ltd., priority 1985, dated 1988).

For orientation: ED50 means the dose that gives a 50% effect, or the effect in half of the subjects. Usually IC50 stands for the midpoint of a concentration-inhibition curve. By inhibition is commonly meant the share of the control response that was lost under treatment.

Assay [1] deals with passive cutaneous anaphylaxis (PCA). Briefly: Inhibitory effect on passive cutaneous anaphylaxis (PCA) in rats. Type of assay: in vivo, rat (male Wistar). The following applies: Rattus norvegicus; 20 mg/kg, oral, 1 hour before antigen challenge; read-out: Inhibition (PCA in rats). The procedure:
(1) Inhibitory effect on passive cutaneous anaphylaxis (PCA) in rats:
This test was carried out by the method of Perper et al. [cf.
Male Wistar rats (130-180 g) were injected with 0.1 ml of a dilute solution of mouse antiserum to egg albumin in two sites of the shaved ventral skin. Forty-eight hours later each rat was challenged by an intravenous injection of 2 mg of the antigen together with 1 ml of a 0.5% Evan's blue saline solution. The rats were sacrificed 30 minutes after the challenge. The area of the blueing lesions was measured on the undersurface of the skin. The average value of the two lesions of each rat was regarded as the response of the rat. Test compounds in a dose of 20 mg/kg, dissolved or suspended in a 0.5% aqueous tragacanth solution, were administered orally 1 hour before the antigen challenge. The inhibitory rate was determined by comparing the responses of the rats given each test compound with those of the rats given only a 0.5% aqueous tragacanth solution. Each group of 3 rats was used for each test compound. The mouse antiserum to egg albumin was produced by the method of Levine and Vaz [cf. Int. Arch. Allergy Appl.

The test system of the next assay is experimental asthma. Briefly: Inhibitory effect on experimental asthma in rats. Type of assay: in vivo, rat (male Wistar). The following applies: Rattus norvegicus, po, 1 hour before antigen challenge. On the procedure: (2) Inhibitory effect on experimental asthma in rats: This test was carried out by the method of Church and Miller [cf. Brit. […] Male Wistar rats (200-250 g) were sensitized by an intraperitoneal injection of 1 ml of a 0.01% egg albumin solution containing 1 mg of Al(OH)3. Two weeks later, the rats were anesthetized with 1.3 g/kg of urethane. The trachea and jugular vein were cannulated. Respiratory volume and velocity were measured by attaching one end of the tracheal cannula to respiratory volume meter connected to a carrier amplifier and an integrator. The rats were challenged by an intravenous injection of 4 mg/kg of egg ablumin 30 minutes after the anesthesia. Test compounds, dissolved or suspended in a 0.5% aqueous tragacanth solution, were administered orally 1 hour before the antigen challenge. Each group of 4 rats was used for each dose of the test compound. ED50 values were calculated from the best fit linear regression line of inhibitory rates of respiratory volume and velocity in each dose.

Assay [2] concerns histamine-induced contraction of isolated guinea pig trachea. Briefly: Inhibitory effect on histamine-induced contraction of isolated guinea pig trachea. Further details: species or system guinea pig (male Hartley). On the procedure: (2) Inhibitory effect on histamine-induced contraction of isolated guinea pig trachea:
Male Hartley guinea pigs (400-700 g) were used. Zig-zag strips of guinea pig trachea were prepared by the method of Emmerson and Mackay [cf. J. Pharm. […] Dose-response curves for histamine were obtained before and 5 minutes after the addition of test compounds. Inhibitory rate was calculated from contraction heights in 3×10^-5 M of histamine without vs. with test compound.

For the next assay, the target named is T1, 5-lipoxygenase (Cavia porcellus, UniProt A0A286X958).
T1 construct: The cytosol fraction of peritoneal exudate cells from male Hartley guinea pigs (400-700 g) was used as 5-lipoxygenase; from tissue; host or cells: cytosol fraction of peritoneal exudate cells (leukocytes) of male Hartley guinea pigs
T1 sequence (A0A286X958 1-674): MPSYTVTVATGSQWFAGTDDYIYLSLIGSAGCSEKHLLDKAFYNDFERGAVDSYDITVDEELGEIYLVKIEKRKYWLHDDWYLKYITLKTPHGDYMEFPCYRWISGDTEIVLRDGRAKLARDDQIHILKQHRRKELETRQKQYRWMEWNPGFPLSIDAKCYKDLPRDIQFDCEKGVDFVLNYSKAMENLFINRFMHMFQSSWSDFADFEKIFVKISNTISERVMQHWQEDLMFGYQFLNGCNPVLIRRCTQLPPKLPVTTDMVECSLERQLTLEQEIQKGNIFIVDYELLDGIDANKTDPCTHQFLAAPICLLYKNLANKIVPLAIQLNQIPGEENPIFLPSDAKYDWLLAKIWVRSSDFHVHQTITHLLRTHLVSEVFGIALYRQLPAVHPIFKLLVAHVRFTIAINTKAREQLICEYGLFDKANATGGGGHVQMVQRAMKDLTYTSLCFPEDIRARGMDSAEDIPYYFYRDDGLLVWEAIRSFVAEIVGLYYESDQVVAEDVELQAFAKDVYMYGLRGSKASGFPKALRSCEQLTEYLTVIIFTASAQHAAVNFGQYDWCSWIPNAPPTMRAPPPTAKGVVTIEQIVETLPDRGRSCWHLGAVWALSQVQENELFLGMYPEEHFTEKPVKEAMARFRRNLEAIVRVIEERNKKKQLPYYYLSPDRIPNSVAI
Briefly: Inhibitory effect on 5-lipoxygenase activity in guinea pig leukocytes. The following applies: 10^-5 M; read-out: 5-Lipoxygenase inhibit. activity, Inhibition. It is filed as biochemical, guinea pig (male Hartley). On the procedure: (1) Inhibitory effect on 5-lipoxygenase activity in guinea pig leukocytes:
This test was carried out by the method of Miyamoto and Obata (cf. "Perspectives in Prostaglandin Research," ed. by Y. Shiokawa et al., Excepta Medica, Amsterdam-Oxford-Princeton, 1983, p78) with minor modifications.
The cytosol fraction of peritoneal exudate cells from male Hartley guinea pigs (400-700 g) was used as 5-lipoxygenase. The standard reaction mixture contained 50 mM potassium phosphate buffer, 1 mM CaCl2, 1 mM glutathione, 1 mM adenosine triphosphoric acid, 10 μM indomethacin and the enzyme. The mixture was incubated for 5 minutes at 30° C. after addition of [1-^14 C]arachidonic acid (0.02 μCi). The reaction was terminated by addition of 0.6 ml of the cold organic solvents (diethyl ether/methanol/0.2M citric acid=30/4/1). The organic layer (300 μl) was applied onto a precoated silica gel 60F254 glass plate (E. Merck, West Germany). Radioactivity on the plate was monitored by a radiochromatogram scanner (Packard, U.S.A.). 5-Lipoxygenase activity was calculated according to the following equation. [formula]
The effects of the test compounds were expressed in terms of percent inhibition.

For assay [3], the system named is contact hypersensitivity to oxazolone. Briefly: Inhibitory effect on contact hypersensitivity to oxazolone in mice. Type of assay: in vivo, mouse (male ICR). The following applies: topical, 0.3 mg/ear; 24 hours after challenge. The procedure: (3) Inhibitory effect on contact hypersensitivity to oxazolone in mice:
This test was carried out by the method of Evans et al. [cf. Brit.
Male ICR mice (18-20 g) were used. The abdominal region of the mice was carefully clipped with an electric clipper, and 0.1 ml of a 0.5 w/v % oxazolone solution in absolute ethanol was gently rubbed into the clipped area. Five days after the sensitization 20 μl of a 0.5 w/v % oxazolone solution in acetone or chloroform, or the solution containing test compound was applied to both sides of the right ear. The left ear was not treated. Twenty-four hours after the challenge, the animals were sacrificed with diethyl ether. The circular parts (5.5 mm in diameter) of both ears were removed by punching and then weighed. The inhibitory rate was determined by comparing the ear swelling of the mice treated with oxazolone containing test compound with that of the mice treated with oxazolone. Each group of 8 mice was used for each dose of the test compound.

Molecules are shown by their SMILES. Read-outs that look alike come from different tables or passages of the source.

Take `O=C(C=Cc1cccnc1)NCCCCN1CCN(C(c2ccccc2)c2ccccc2)CC1` [Example 1, N-[3-(3-pyridyl)acryloyl]-4-(4-diphenylmethyl-1-piperazinyl)butylamine]: the inhibition in vivo at 20 mg/kg in assay [1] was determined as 62.3%. The median effective dose (ED50) amounted to 14.1 mg/kg in the assay with experimental asthma (respiratory velocity, read-out: ED50, respiratory velocity) and 13.3 mg/kg with experimental asthma (respiratory volume, read-out: ED50, respiratory volume). Besides, the IC50 in assay [2] (3×10^-5 M histamine, isolated guinea pig trachea, read-out: Anti-hist. activity IC50) came out at 960 nM. Moreover, the “antihistamine activity (in words)” value in assay [2] (compared with ketotifen fumarate) is “potent antihistamine activity, though fairly inferior to that of ketotifen fumarate”.
For `O=C(C=Cc1cncc(F)c1)NCCCCN1CCN(C(c2ccccc2)c2ccccc2)CC1` [Example 3, N-[3-(5-fluoro-3-pyridyl)acryloyl]-4-(4-diphenylmethyl-1-piperazinyl)butylamine], the inhibition in vivo at 20 mg/kg in assay [1] stood at 65%.
The same measure, in the same setting: in the case of `CC/C(=C\c1cccnc1)C(=O)NCCCCN1CCN(C(c2ccccc2)c2ccccc2)CC1` [Example 5, N-[3-(3-pyridyl)-2-ethylacryloyl]-4-(4-diphenylmethyl-1-piperazinyl)butylamine sesquifumarate] it was 67.8%; in that of `O=C(C=Cc1cccnc1)NCCCCN1CCCN(C(c2ccccc2)c2ccccc2)CC1` [Example 6, N-[3-(3-pyridyl)acryloyl]-4-(4-diphenylmethyl-1-homopiperazinyl)butylamine1/4 hydrate], 70%.
For the molecule `O=C(C=Cc1ccccn1)NCCCCN1CCN(C(c2ccccc2)c2ccccc2)CC1` [Example 11], the inhibition at 10 µM on 5-lipoxygenase came out at 59.6%.
The same measure, in the same setting: in the case of `Cc1ccc(C=CC(=O)NCCCCCN2CCN(C(c3ccccc3)c3ccccc3)CC2)cn1` [Example 15] it was 48.6%; in that of `Cc1ccc(O)c(C=CC(=O)NCCCCN2CCN(C(c3ccccc3)c3ccccc3)CC2)n1` [Example 20], 68.6%; in that of `COc1ccc(C=CC(=O)NCCCCN2CCN(C(c3ccccc3)c3ccccc3)CC2)cn1` [Example 25], 66.2%.
Turning to `O=C(C=Cc1ccc(Oc2cccc(F)c2)nc1)NCCCCN1CCN(C(c2ccccc2)c2ccccc2)CC1` [Example 29], the inhibition in vivo at 20 mg/kg in assay [1] was found to be 60.7%.
As for `O=C(C=Cc1ccc(Cl)nc1)NCCCCN1CCN(C(c2ccccc2)c2ccccc2)CC1` [Example 37], the inhibition at 10 µM at 5-lipoxygenase is 54.6%.
With `Cc1ncc(C=CC(=O)NCCCCN2CCN(C(c3ccccc3)c3ccccc3)CC2)c(CO)c1O` [Example 38, N-[3-(5-hydroxy-4-hydroxymethyl-6-methyl-3-pyridyl)acryloyl]-4-(4-diphenylmethyl-1-piperazinyl)butylamine], the “% Inhibition of ear swelling” value in assay [3] turned out to be 83.8%. Also, the inhibition at 10 µM at 5-lipoxygenase stood at 72.7%.
On to `O=C(C=Cc1ccc(O)nc1)NCCCCN1CCN(C(c2ccccc2)c2ccccc2)CC1` [Example 44], for which the inhibition at 10 µM at 5-lipoxygenase worked out at 45.5%.
Take `O=C(C=Cc1cncc(Cl)c1)NCCCCN1CCN(C(c2ccccc2)c2ccccc2)CC1` [Example 47]: in assay [1], the inhibition in vivo at 20 mg/kg came to 66.4%.
`Cc1ccc(C(c2ccccc2)N2CCN(CCCCNC(=O)C=Cc3ccc(C)nc3)CC2)cc1` (centres unmarked) [Example 48]: the inhibition in vivo at 20 mg/kg in assay [1] was determined as 73.9%.
Consider `Cc1ccc(C=CC(=O)NCCCCN2CCN(C(c3ccccc3)c3ccccc3)CC2)c(C)n1` [Example 50], for which, in assay [1], the inhibition in vivo at 20 mg/kg is 66.8%. On 5-lipoxygenase, the inhibition at 10 µM was 61.2%.
As to `Cc1ncccc1C=CC(=O)NCCCCN1CCN(C(c2ccccc2)c2ccccc2)CC1` [Example 53], in assay [1], the inhibition in vivo at 20 mg/kg amounted to 68.8%.
Same read-out and setting: in the case of `Cc1ccc(C(c2ccccc2)N2CCN(CCCCNC(=O)C=Cc3cccnc3)CC2)cc1` (centres unmarked) [Example 58] it was 82.9%; in that of `O=C(C=Cc1cccnc1)NCCCCN1CCN(C(c2ccc(F)cc2)c2ccc(F)cc2)CC1` [Example 62], 56.1%; in that of `O=C(C=Cc1cccnc1)NCCCCN1CCN(C(c2ccccc2)c2ccc(Br)cc2)CC1` (centres unmarked) [Example 64], 55.8%.
With `C/C(=C\c1cccnc1)C(=O)NCCCCN1CCN(C(c2ccccc2)c2ccccc2)CC1` [Example 76], the inhibition in vivo at 20 mg/kg in assay [1] amounted to 78.9%. Further, in assay [3], the “% Inhibition of ear swelling” value stood at 65.8%. Moreover, the inhibition at 10 µM at 5-lipoxygenase came to 43.5%.
In the case of `C/C(=C\c1ccc(C)nc1)C(=O)NCCCCN1CCN(C(c2ccccc2)c2ccccc2)CC1` [Example 77], in assay [1], the inhibition in vivo at 20 mg/kg was 58.2%.
Same read-out and setting: in the case of `O=C(NCCCCN1CCN(C(c2ccccc2)c2ccccc2)CC1)/C(=C/c1cccnc1)c1ccccc1` [Example 79] it was 58%.
On to `O=C(C=CC=Cc1cccnc1)NCCCN1CCN(C(c2ccccc2)c2ccccc2)CC1` [Example 84], for which the inhibition at 10 µM on 5-lipoxygenase was found to be 60.3%.
`O=C(C=CC=Cc1cccnc1)NCCCCN1CCN(C(c2ccccc2)c2ccccc2)CC1` [Example 85]: in assay [1], the inhibition in vivo at 20 mg/kg came to 66.4%.
The same measure, in the same setting: as for `Cc1ccc(C=CC=CC(=O)NCCCCN2CCN(C(c3ccccc3)c3ccccc3)CC2)cn1` [Example 87], the figure is 68.8%.
In the case of `O=C(C=Cc1cccnc1)NCC=CCN1CCN(C(c2ccccc2)c2ccccc2)CC1` [Example 90, N-[3-(3-pyridyl)acryloyl]-4-(4-diphenylmethyl-1-piperazinyl)-2-butenylamin], the inhibition in vivo at 20 mg/kg in assay [1] was found to be 83.3%. The “% Inhibition of ear swelling” value in assay [3] worked out at 46.3%.
